# Test results from patent publication US20090270342A1, “IMMUNOREGULATORY AGENT” (priority 2006, published 2009).
# Test system: cedar- and Japanese cypress-pollen disease
# Assay: Clinical symptom scores in cedar- and Japanese cypress-pollen allergy, double blind test (Experiment 8)
# Type: in vivo, human
# Experimental: In Experiments 4 to 7, it was confirmed that the production of IgE and cytokines, which involves in allergic symptoms, is suppressed by ingesting lactosucrose. Based on the results, an experiment for investigating the suppressing effect of lactosucrose on the clinical symptoms caused by ceder- and Japanese cypress-pollen was carried out as follows. Volunteers who had been self-diagnosed to have allergic symptoms of nose or eyes at a season of cedar- and Japanese cypress-pollen (February to May) in the past two to three years, were recruited as subjects. An interview about the clinical symptoms of nose and eyes for the past two to three years was carried out to the applied volunteers with referencing a guideline for the diagnosis of pollinosis, “HANA ALLERGY SHINDAN GUIDELINE—TUNENSEI BIEN TO KAFUNSHO—2005 NENDO-BAN (Guideline for the diagnosis of nose allergy—chronic allergic rhinitis and pollinosis 2005 edition)”, edited by the committee for the guideline for the diagnosis of nose allergy, published by Life Science pp. 20-24 (2006). Based on the results, 40 persons estimated to be cedar- and Japanese cypress-pollen disease were selected as subjects. The subjects were divided into two groups, a test group ingesting lactosucrose (ingesting 3 g of lactosucrose every day) and a control group ingesting placebo, regarding with a score of clinical symptoms of the subjects. Then, “NYU-KA OLIGO 700”, a 76% (w/w)-solid content syrup, comprising lactosucrose, commercialized by Hayashibara Shoji Inc., Okayama, Japan, which comprises 71.5% (w/w) of lactosucrose, 13.7% (w/w) of sucrose, 7.5% (w/w) of lactose, and 7.3% (w/w) of other saccharides, on a dry solid basis, was repackaged into aluminum pillowcases with about 6 g/package (3 g of lactosucrose/package) and the resulting packages were distributed to the subjects of the lactosucrose-ingesting group. In the same manner, “CORN SUGAR A-33”, an about 75% (w/w)-solid content isomerized sugar syrup comprising sucrose, commercialized by Sanwa Cornstarch Co., Ltd., Nara, Japan, which comprises 33.5% (w/w) of sucrose, 33.7% (w/w) of glucose, and 29.2% (w/w) of fructose, on a dry solid basis, was repackaged into packages with about 6 g/package similarly as in the above and distributed to the subjects of the placebo-ingesting group. The ingestion was started at Jan. 16, 2007 (zero week), before the beginning of cedar-pollen season, and then subjects were allowed to ingest one package of the test substance at any time every day for 18 weeks. The methods for ingesting the test substance were not restricted and the subjects were permitted to ingest directly from the package or after mixing with other foods and beverages. The experiment was carried out with double blind test and the subjects were not restricted except for ingesting the test substance and were allowed to take medicines including an anti-allergic agent. For evaluating the suppression of allergic symptoms by ingesting the test substance, questionnaire survey was carried out to subjects about clinical symptoms of nose and eyes and difficulties on daily life once per week for 21 weeks, from one week before from starting the ingestion of the test substance to two weeks after of the end of the ingestion. The first questionnaire survey was carried out […]. Based on the respective result of the questionnaire of the group ingesting lactosucrose and the control group, the effects were evaluated by scores determined with regarding the suppressive effect on allergic symptoms of medicines such as an anti-allergic agent used during the test period. […] 9, 2007; the beginning of March; and the end of March; respectively, in the test area, the southern part of Okayama Prefecture. […] 27, 2007; and the end of April in the test area. Accordingly, the ingestion of the test substance in the experiment was started about three weeks before the cedar pollen season. […]
# [1] = 3 g of lactosucrose every day, after the start of ingesting the test substance
smiles,measurement,setting,value
"OC[C@H]1O[C@@H](O[C@H]2[C@H](O)[C@@H](O)[C@@H](O[C@]3(CO)O[C@H](CO)[C@@H](O)[C@@H]3O)O[C@@H]2CO)[C@H](O)[C@@H](O)[C@H]1O [Lactosucrose, β-D-galactosyl-(1,4)-α-D-glucosyl-(1,2)-β-D-fructoside]",Generation of clinical symptoms and difficulties on daily life in comparison with the control group,"3 g of lactosucrose every day (NYU-KA OLIGO 700), 18 weeks, human pollinosis subjects",delayed by one week
same,Score of clinical symptoms of nose compared with the control group,"3 g of lactosucrose every day, 18 weeks, FIG. 1",kept lower value than those of the control group during four to 10 weeks
same,Score of clinical symptoms of eyes compared with the control group,"3 g of lactosucrose every day, 18 weeks, FIG. 2",lower than those of the control group though the test period
same,Score of difficulties on daily life compared with the control group,"3 g of lactosucrose every day, 18 weeks, FIG. 3",lower than those of the control group though the test period
same,Time at which the score of clinical symptoms of eyes reached a peak,[1],eight weeks
same,Time at which the score of clinical symptoms of nose reached a peak,[1],seven weeks
same,Time at which the score of difficulties on daily life reached a peak,[1],seven weeks
